Results reported in patent US20130324530A1 (Novartis AG, priority 2010, published 2013).
pIC50: −log10 of the molar value.

Tests used:
[1] = test system: neointima formation; settings: rats; cited from earlier work
[2] = biological target: Cdk9/cyclinT1 (Homo sapiens, UniProt P50750); assay: Cdk9/CyclinT1 IMAP assay
Sequence of Cdk9/cyclinT1 (P50750 whole entry): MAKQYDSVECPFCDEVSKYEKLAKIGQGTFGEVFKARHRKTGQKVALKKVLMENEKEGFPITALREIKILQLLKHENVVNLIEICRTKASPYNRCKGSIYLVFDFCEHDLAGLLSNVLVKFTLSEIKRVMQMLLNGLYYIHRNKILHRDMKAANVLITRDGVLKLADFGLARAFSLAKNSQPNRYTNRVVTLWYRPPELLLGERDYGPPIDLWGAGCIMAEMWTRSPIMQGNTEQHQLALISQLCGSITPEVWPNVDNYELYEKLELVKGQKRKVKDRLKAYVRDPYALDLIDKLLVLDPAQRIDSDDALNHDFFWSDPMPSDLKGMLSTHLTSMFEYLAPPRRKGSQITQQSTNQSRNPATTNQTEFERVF
Sequence of Cdk9/cyclinT1 (O60563 whole entry partner): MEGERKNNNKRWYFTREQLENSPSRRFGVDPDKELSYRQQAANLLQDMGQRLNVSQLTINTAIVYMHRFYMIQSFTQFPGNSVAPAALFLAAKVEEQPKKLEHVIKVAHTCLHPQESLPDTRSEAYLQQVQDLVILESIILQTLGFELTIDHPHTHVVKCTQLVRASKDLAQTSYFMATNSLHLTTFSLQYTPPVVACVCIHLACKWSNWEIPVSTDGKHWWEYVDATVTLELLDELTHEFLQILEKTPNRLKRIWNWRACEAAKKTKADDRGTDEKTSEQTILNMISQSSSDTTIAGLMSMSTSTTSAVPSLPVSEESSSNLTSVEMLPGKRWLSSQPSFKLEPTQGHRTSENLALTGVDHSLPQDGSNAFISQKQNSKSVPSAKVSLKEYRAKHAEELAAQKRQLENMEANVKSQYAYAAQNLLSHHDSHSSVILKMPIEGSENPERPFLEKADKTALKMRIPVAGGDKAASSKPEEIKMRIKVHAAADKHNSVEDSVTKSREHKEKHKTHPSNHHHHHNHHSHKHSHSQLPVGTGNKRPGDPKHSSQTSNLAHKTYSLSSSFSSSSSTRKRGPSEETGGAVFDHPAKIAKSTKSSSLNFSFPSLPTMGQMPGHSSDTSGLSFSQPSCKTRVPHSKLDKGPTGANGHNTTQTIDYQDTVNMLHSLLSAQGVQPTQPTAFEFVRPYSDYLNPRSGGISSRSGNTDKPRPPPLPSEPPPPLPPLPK
Protocol: The final total protein concentration in the assay is 4 nM. […] The final concentration of peptide substrate is 100 nM. […] The final concentration of ATP substrate is 6 uM. IMAP (Immobilized Metal Assay for Phosphochemicals) Progressive Binding reagent is purchased from Molecular Devices, cat#R8139. Fluorescence polarization (FP) is used for detection. The 5TAMRA-cdk7tide peptide is phosphorylated by Cdk9/cyclinT1 kinase using the ATP substrate. The Phospho-5TAMRA-cdk7tide peptide substrate is bound to the IMAP Progressive Binding Reagent. […] IMAP Progressive Binding Reagent is diluted 1:800 in 100% 1× Solution A from Molecular Devices, cat#R7285.
General protocol is as follows: To 10 ul of cdk9/cyclinT1, 0.5 ul of test compound in dimethyl sulfoxide is added. [sequence]-cdk7tide and ATP are mixed. 10 ul of the 5TAMRA-cdk7tide/ATP mix is added to start the reaction. The reaction is allowed to proceed for 4.5 hrs. 60 uL of IMAP Progressive Binding Reagent is added.

| Compound | inhibition of neointima formation [1] | pIC50 [2] |
| --- | --- | --- |
| COc1ccc(CNc2nc(N(CCO)CCO)nc3c2ncn3C(C)C)cc1 [CVT-313] | greater than 80% |  |
| CO[C@H](CN[C@H]1CC[C@H](Nc2cc(-c3cc(NCC4CCOCC4)cnc3Cl)c(Cl)cn2)CC1)C(F)(F)F [Compound 72, 2,5′-dichloro-N5-((tetrahydro-2H-pyran-4-yl)methyl)-N2′-(trans-4-((R)-3,3,3-trifluoro-2-methoxypropylamino)cyclohexyl)-3,4′-bipyridine-2′,5-diamine] |  | 8.15 |
| Fc1cccc(CNc2cncc(-c3cc(NC4CC4)ncc3Cl)c2)c1 [Compound 47] |  | > 8.10 |
| OCCNc1cc(-c2cncc(NCc3cccc(F)c3)c2)c(Cl)cn1 [Compound 30] |  | > 8.10 |
| Clc1cnc(N[C@H]2CC[C@H](NC[C@@H]3CCCO3)CC2)cc1-c1cc(NCC2CCOCC2)cnc1Cl [Compound 65] |  | > 8.10 |
| N[C@H]1CC[C@H](Nc2cc(-c3cnc(N4CCOCC4)c(NCC4CCOCC4)c3)c(Cl)cn2)CC1 [Compound 26, N2′-(trans-4-aminocyclohexyl)-5′-chloro-6-morpholino-N5-((tetrahydro-2H-pyran-4-yl)methyl)-3,4′-bipyridine-2′,5-diamine] |  | 5.71 |
| Fc1cccc(CNc2cncc(-c3cc(NC4CCCC4)ncc3Cl)c2)c1 [Compound 48] |  | > 8.10 |
| COc1ncc(-c2cc(N[C@H]3CC[C@H](N)CC3)ncc2Cl)cc1NCC1CCOCC1 [Compound 85] |  | 7.02 |
| C[C@H](CO)Nc1cc(-c2cncc(NCC3CCOCC3)c2)c(Cl)cn1 [Compound 41] |  | 6.49 |
| Clc1cnc(N[C@H]2CC[C@H](NC[C@H]3CCCO3)CC2)cc1-c1cc(NCC2CCOCC2)cnc1Cl [Compound 25, 2,5′-dichloro-N5-((tetrahydro-2H-pyran-4-yl)methyl)-N2′-(trans-4-(((R)-tetrahydrofuran-2-yl)methylamino)cyclohexyl)-3,4′-bipyridine-2′,5-diamine] |  | > 8.10 |
| O[C@H]1CC[C@H](Nc2cc(-c3cnc(F)c(NCC4CCOCC4)c3)c(Cl)cn2)CC1 [Compound 54] |  | > 8.10 |
| N[C@H]1CC[C@H](Nc2cc(-c3cncc(NCC4CCOCC4)c3)c(Cl)cn2)CC1 [Compound 63, N2′-(trans-4-aminocyclohexyl)-5′-chloro-N5-((tetrahydro-2H-pyran-4-yl)methyl)-3,4′-bipyridine-2′,5-diamine] |  | 7.74 |
